Source: ChEMBL document CHEMBL3639097, “2-aryl imidazo[1,2-a]pyridine-3-acetamide derivatives, preparation methods and uses thereof” (2015)
pIC50, pKi: −log10 of the molar value.

The molecules below were run against Translocator protein (Rattus norvegicus, UniProt P16257) (assay: Competitive Binding Assay: Competitive Binding Test of Drug to the Receptor (Rat Heart TSPO) and Radioligand (3H-PK11195): (1) tubes were placed in reaction condition of 30 C.(2) all tubes were added with 20 ug of receptor protein in order;(3) the test tubes were added in order with 20 uL of drugs in certain concentrations;(4) the non-specific binding tubes were added with 20 uL of non-tagged ligand (PK11195), the final concentration of the non-tagged ligand was 0.1 mM, pre-reacted for 30 min;(5) all tubes were added in order with 25 uL 3H-PK11195, the final concentration of the labeled ligand was 1.5 nM;(6) Tris-HCl Buffer pH7.4 was used to complement the reaction volumes of all tubes to reach 200 uL;(7) the reaction was performed under 30 C. reaction condition for 1 h;(8) Then samples were applied to 49-type glass fibre filter, vacuum suction filtered, then washed with 2 ml ice-cold Tris-HCl buffer solution (50 mM Tris-HCl buffer solution, 1 mM EDTA, 5 mM MgCl2, 1 mM PMSF, 0.1% NaN3.).
Molecule CCN(Cc1ccccc1)C(=O)Cc1c(-c2ccc(Cl)cc2)nc2cc(C)ccn12 has a pIC50 of 7.77 and a pKi of 8.14. Work on COCCN(Cc1ccccn1)C(=O)Cc1c(-c2ccc(Cl)c(Cl)c2)nc2cc(C)ccn12 yielded a pIC50 of 7.81 and a pKi of 8.18. For CCN(Cc1ccccn1)C(=O)Cc1c(-c2ccc(Cl)c(Cl)c2)nc2cc(C)ccn12, the pIC50 was 7.66 and the pKi was 8.03. CCN(Cc1ccncc1)C(=O)Cc1c(-c2ccc(Cl)c(Cl)c2)nc2cc(C)ccn12 was tested, and the pIC50 was 7.58 and the pKi was 7.96.
